Columns and labels:
[1] = DRUGMATRIX: Purinergic P2X radioligand binding (ligand: [3H] alpha, beta-Methylene-ATP); type: cell membranes, Oryctolagus cuniculus, New Zealand albino, Urinary bladder, Membrane; settings: Not Active = under 50% inhibition at 10 µM
[2] = biological target: T1, 3-hydroxy-3-methylglutaryl-coenzyme A reductase (Homo sapiens, UniProt P04035); parameters: species or system Escherichia coli;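 also: enzyme inhibition assay of HMG-CoA reductase using radiolabeled [14C]HMG-CoA as substrate; in other assays of this panel Not Active means under 50% inhibition at 10 µM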
T1 sequence (P04035 whole entry): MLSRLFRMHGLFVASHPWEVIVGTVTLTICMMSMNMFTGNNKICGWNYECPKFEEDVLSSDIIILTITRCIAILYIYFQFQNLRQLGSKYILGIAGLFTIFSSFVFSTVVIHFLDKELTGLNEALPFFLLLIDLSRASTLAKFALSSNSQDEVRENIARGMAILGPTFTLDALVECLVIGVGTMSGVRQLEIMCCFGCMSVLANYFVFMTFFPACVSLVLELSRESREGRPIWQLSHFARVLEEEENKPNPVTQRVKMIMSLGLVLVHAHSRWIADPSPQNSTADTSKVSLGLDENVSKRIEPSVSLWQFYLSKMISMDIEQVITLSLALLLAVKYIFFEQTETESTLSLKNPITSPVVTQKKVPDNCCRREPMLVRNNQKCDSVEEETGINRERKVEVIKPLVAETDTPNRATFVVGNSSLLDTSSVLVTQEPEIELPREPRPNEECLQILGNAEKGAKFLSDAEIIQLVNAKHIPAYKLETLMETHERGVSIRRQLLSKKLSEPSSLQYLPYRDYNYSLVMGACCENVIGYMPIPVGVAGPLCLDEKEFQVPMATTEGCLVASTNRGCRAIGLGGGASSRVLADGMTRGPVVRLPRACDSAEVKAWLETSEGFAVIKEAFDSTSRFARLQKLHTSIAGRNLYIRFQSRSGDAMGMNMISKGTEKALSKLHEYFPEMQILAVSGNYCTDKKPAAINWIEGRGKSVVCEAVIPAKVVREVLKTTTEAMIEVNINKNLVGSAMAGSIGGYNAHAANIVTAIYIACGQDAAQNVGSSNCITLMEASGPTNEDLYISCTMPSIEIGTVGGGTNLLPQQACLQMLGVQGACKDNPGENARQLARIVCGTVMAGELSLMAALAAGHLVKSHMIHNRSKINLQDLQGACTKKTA

[3] = biological target: T2, Vasoactive intestinal polypeptide receptor 1 (Homo sapiens, UniProt P32241); type: cell membranes, Membrane; settings: ht-29; also: in other assays of this panel Not Active means under 50% inhibition at 10 µM
T2 sequence (P32241 whole entry): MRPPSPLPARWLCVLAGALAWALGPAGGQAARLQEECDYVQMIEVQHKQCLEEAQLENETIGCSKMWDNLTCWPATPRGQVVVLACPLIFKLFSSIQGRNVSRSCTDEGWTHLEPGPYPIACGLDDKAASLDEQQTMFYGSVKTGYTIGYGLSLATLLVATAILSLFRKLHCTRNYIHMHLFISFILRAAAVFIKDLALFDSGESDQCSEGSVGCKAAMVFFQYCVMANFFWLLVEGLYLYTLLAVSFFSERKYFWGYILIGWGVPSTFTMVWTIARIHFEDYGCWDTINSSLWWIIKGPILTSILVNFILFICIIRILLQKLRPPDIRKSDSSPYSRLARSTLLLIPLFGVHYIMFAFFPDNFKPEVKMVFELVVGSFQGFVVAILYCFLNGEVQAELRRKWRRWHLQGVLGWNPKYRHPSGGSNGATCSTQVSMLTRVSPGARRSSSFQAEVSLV

[4] = biological target: Sodium-dependent noradrenaline transporter (Homo sapiens, UniProt P23975); assay: DRUGMATRIX: Norepinephrine Transporter radioligand binding (ligand: [125I] RTI-55); type: cell membranes, MDCK, Membrane; settings: Not Active = under 50% inhibition at 10 µM
Chain of Sodium-dependent noradrenaline transporter (P23975 whole entry): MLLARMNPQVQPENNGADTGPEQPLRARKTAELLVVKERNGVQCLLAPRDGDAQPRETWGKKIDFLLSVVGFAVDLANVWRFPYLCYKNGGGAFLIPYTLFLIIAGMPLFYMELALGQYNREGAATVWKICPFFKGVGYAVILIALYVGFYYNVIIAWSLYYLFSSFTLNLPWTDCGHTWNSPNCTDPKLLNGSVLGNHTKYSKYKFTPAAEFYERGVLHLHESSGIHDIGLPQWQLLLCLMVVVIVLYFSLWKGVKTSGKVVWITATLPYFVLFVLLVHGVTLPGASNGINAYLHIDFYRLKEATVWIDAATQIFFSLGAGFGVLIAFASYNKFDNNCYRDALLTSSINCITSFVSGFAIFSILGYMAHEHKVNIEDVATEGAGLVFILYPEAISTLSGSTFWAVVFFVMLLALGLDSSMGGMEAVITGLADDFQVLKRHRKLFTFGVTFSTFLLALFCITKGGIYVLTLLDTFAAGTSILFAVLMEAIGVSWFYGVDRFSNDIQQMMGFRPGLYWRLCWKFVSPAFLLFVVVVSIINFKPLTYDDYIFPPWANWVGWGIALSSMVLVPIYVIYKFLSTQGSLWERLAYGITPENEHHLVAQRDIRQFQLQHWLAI

[5] = DRUGMATRIX: Phosphodiesterase PDE4 enzyme inhibition (substrate: [3H]cAMP + cAMP); settings: u-937, Not Active = under 50% inhibition at 10 µM
[6] = biological target: Mitogen-activated protein kinase 1 (Homo sapiens, UniProt P28482); assay: DRUGMATRIX: Protein Serine/Threonine Kinase, ERK2 enzyme inhibition (substrate: Myelin Basic Protein); parameters: species or system Escherichia coli; settings: Not Active = under 50% inhibition at 10 µM
Chain of Mitogen-activated protein kinase 1 (P28482 whole entry): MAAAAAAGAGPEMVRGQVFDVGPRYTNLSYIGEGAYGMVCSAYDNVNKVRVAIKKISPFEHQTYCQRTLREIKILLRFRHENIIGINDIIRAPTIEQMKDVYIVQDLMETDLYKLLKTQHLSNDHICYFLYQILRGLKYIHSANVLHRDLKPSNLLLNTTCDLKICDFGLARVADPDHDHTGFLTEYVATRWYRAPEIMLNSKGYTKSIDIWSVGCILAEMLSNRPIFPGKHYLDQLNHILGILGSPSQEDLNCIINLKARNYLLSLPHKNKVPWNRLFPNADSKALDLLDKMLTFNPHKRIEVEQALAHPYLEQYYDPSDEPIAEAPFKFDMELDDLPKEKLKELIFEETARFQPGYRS

[7] = biological target: Tyrosine-protein kinase Fyn (Homo sapiens, UniProt P06241); assay: biochemical; type: cell-based, Insect cells;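 also: enzymatic inhibition of Fyn kinase activity measured with Poly(Glu:Tyr) as the phosphorylation substrate; in other assays of this panel Not Active means under 50% inhibition at 10 µM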
Chain of Tyrosine-protein kinase Fyn (P06241 whole entry): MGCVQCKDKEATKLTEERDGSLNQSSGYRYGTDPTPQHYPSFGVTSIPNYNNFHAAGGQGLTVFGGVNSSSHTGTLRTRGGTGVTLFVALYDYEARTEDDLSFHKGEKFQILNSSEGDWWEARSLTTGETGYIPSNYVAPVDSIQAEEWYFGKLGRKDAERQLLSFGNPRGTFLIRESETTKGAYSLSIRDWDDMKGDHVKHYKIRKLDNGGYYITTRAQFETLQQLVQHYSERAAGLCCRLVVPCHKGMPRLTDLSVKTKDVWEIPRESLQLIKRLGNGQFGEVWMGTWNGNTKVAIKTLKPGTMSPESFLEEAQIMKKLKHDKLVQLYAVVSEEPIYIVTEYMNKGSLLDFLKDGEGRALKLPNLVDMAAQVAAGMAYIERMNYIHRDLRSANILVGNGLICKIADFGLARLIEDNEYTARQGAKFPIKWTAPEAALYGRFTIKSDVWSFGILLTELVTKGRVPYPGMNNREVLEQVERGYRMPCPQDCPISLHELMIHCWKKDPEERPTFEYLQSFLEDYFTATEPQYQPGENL

[8] = biological target: 5-hydroxytryptamine receptor 1B (Rattus norvegicus, UniProt P28564); type: cell membranes, Wistar, Cerebral cortex, Membrane; also: in other assays of this panel Not Active means under 50% inhibition at 10 µM
Chain of 5-hydroxytryptamine receptor 1B (P28564 whole entry): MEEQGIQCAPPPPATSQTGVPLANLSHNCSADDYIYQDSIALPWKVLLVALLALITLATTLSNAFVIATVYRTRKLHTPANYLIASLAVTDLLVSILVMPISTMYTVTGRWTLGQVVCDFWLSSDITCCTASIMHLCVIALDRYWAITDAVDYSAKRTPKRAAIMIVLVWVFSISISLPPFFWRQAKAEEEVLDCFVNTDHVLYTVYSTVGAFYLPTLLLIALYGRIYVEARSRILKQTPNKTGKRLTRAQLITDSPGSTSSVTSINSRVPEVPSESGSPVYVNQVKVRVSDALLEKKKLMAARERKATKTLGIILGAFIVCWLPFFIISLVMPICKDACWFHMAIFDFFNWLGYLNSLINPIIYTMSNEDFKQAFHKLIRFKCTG

[9] = biological target: Beta-2 adrenergic receptor (Homo sapiens, UniProt P07550); assay: DRUGMATRIX: Adrenergic beta2 radioligand binding (ligand: [3H] CGP-12177); type: cell membranes, Membrane; settings: cho; Not Active = under 50% inhibition at 10 µM
Chain of Beta-2 adrenergic receptor (P07550 whole entry): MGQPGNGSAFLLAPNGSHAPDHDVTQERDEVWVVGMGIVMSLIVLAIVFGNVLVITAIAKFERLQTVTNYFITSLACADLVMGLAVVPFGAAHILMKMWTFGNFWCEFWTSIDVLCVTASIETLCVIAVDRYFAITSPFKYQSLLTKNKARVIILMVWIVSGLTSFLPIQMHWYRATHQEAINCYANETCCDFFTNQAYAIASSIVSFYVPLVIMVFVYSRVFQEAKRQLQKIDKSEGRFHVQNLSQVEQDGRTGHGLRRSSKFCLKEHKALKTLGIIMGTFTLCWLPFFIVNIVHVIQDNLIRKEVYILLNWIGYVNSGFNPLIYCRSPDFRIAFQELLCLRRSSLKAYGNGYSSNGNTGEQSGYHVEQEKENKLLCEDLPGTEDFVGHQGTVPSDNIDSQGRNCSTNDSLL

Progesterone receptor = biological target: T3, Progesterone receptor (Bos taurus, UniProt Q690N0); assay: DRUGMATRIX: Progesterone radioligand binding (ligand: [3H] R-5020); type: tissue-based, Uterus; settings: Not Active = under 50% inhibition at 10 µM
T3 sequence (Q690N0 whole entry): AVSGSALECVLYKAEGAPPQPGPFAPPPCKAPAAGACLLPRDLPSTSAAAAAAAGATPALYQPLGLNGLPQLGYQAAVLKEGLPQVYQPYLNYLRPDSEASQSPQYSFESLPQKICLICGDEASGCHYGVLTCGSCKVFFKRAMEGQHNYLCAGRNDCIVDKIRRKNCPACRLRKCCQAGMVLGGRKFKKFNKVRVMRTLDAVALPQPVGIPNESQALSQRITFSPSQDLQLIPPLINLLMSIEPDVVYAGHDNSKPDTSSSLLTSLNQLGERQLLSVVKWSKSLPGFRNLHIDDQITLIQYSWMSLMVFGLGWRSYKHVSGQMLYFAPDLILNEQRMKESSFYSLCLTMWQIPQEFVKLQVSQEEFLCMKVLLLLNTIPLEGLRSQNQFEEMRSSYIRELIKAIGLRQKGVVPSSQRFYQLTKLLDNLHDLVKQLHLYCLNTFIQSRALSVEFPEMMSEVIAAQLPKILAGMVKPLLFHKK

[10] = DRUGMATRIX: GABAA, Flunitrazepam, Central radioligand binding (ligand: [3H] Flunitrazepam); type: cell membranes, Rattus norvegicus, Wistar, Brain, Membrane; settings: Not Active = under 50% inhibition at 10 µM
Insulin receptor = Insulin receptor (Rattus norvegicus, UniProt P15127); type: cell membranes, Wistar, Liver, Membrane; also: in other assays of this panel Not Active means under 50% inhibition at 10 µM
Chain of Insulin receptor (P15127 27-759 limits assumed): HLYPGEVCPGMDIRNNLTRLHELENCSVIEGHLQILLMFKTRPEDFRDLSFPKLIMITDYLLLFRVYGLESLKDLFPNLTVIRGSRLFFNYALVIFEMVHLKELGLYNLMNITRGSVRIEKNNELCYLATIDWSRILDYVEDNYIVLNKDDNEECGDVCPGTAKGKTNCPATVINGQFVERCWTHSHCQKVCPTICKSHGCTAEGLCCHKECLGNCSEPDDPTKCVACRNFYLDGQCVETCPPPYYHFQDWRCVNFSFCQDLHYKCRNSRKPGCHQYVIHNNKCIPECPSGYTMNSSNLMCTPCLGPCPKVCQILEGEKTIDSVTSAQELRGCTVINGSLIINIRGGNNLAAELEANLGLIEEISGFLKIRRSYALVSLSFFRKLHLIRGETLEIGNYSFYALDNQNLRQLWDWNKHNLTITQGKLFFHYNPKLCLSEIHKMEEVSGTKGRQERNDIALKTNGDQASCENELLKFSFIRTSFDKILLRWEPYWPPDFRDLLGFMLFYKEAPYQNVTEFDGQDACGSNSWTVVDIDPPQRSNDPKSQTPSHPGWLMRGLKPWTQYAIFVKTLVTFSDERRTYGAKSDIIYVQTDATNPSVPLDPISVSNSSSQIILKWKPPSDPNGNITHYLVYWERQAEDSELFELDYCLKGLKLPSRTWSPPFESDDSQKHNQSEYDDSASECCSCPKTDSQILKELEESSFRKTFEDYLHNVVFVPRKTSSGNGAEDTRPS
Chain of Insulin receptor (P15127 764-1383 limits assumed): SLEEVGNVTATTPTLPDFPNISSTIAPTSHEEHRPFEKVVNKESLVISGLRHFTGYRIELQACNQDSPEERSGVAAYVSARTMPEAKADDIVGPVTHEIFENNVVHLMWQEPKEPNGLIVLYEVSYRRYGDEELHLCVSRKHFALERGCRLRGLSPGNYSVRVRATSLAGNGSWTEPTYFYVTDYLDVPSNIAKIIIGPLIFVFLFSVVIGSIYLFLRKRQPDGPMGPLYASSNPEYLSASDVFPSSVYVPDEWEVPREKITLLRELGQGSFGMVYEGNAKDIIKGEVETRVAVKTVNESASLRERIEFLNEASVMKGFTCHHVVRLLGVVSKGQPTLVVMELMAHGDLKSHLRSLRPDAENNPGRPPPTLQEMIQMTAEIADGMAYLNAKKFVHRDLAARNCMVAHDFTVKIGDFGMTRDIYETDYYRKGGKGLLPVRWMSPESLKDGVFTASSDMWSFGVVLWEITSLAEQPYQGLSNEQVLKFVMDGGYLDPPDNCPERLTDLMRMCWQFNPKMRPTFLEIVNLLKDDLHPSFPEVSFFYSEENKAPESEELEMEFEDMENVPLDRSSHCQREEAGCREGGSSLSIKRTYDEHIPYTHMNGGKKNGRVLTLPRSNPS

Compound	IC50 [1]	Ki [1]	IC50 [2]	IC50 [3]	IC50 ([4]; mdck)	IC50 [5]	Ki [5]	IC50 [6]	IC50 ([7]; insect cells)	IC50 [8]	IC50 [9]	IC50 (Progesterone receptor)	IC50 [10]	Ki [10]	IC50 (Insulin receptor)	IC50 ([7]; read-out: IC50)	IC50 ([4]; read-out: IC50)	Ki ([4]; read-out: Ki)	IC50 ([5]; read-out: IC50)
COc1ccc2cc(CC(=O)O)ccc2c1	Not Active	Not Active	Not Active	Not Active	Not Active	Not Active	Not Active	Not Active	Not Active	Not Active	Not Active	Not Active	Not Active	Not Active	Not Active	–	–	–	–
c1ccc2c(c1)cc1ccc3cccc4ccc2c1c34	Not Active	Not Active	Not Active	Not Active	Not Active	Not Active	Not Active	Not Active	–	Not Active	Not Active	Not Active	Not Active	Not Active	Not Active	26200 nM	–	–	–
CC=CC(=O)N(CC)c1ccccc1C	Not Active	Not Active	Not Active	Not Active	Not Active	Not Active	Not Active	Not Active	Not Active	Not Active	Not Active	Not Active	Not Active	Not Active	Not Active	–	–	–	–
C=C1C(=O)O[C@@H]2C3O[C@]3(C)CC/C=C(\C)CC[C@@H]12 (stereo not given in full)	Not Active	Not Active	Not Active	Not Active	Not Active	Not Active	Not Active	Not Active	Not Active	Not Active	Not Active	Not Active	Not Active	Not Active	Not Active	–	–	–	–
CC(/C=C1\SC(=S)N(CC(=O)O)C1=O)=C\c1ccccc1	Not Active	Not Active	Not Active	Not Active	Not Active	Not Active	Not Active	Not Active	Not Active	Not Active	Not Active	Not Active	Not Active	Not Active	Not Active	–	–	–	–
CCCCCCCCCc1ccc(O)cc1 [4-NONYLPHENOL]	Not Active	Not Active	Not Active	Not Active	–	Not Active	Not Active	Not Active	Not Active	Not Active	Not Active	Not Active	Not Active	Not Active	Not Active	–	1250 nM	1240 nM	–
COc1ccc2c(c1)c(CC(=O)OCC(=O)O)c(C)n2C(=O)c1ccc(Cl)cc1 [ACEMETACIN]	Not Active	Not Active	Not Active	Not Active	Not Active	Not Active	Not Active	Not Active	Not Active	Not Active	Not Active	Not Active	Not Active	Not Active	Not Active	–	–	–	–
CCCSc1ccc2nc(NC(=O)OC)[nH]c2c1 [ALBENDAZOLE]	Not Active	Not Active	Not Active	Not Active	Not Active	Not Active	Not Active	Not Active	Not Active	Not Active	Not Active	Not Active	Not Active	Not Active	Not Active	–	–	–	–
Cc1[nH]cnc1CN1CCc2c(c3ccccc3n2C)C1=O [ALOSETRON]	Not Active	Not Active	Not Active	Not Active	Not Active	Not Active	Not Active	Not Active	Not Active	Not Active	Not Active	Not Active	Not Active	Not Active	Not Active	–	–	–	–
O=c1cc(-c2ccccc2)oc2c1ccc1ccccc12 [ALPHA-NAPHTHOFLAVONE]	Not Active	Not Active	Not Active	Not Active	Not Active	–	–	Not Active	Not Active	Not Active	Not Active	Not Active	Not Active	Not Active	Not Active	–	–	–	2920 nM
